Measured values as given in PubChem BioAssay AID1259411 (Chemical Carcinogenesis Research Information System (CCRIS), 2018).
Calls of active or inactive are those of the source. No rule for the calls is given here.

System: rodent carcinogenicity bioassays, tumor incidence
Test: CCRIS carcinogenicity studies
Summary of the method: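 NCI-built, expert-reviewed records of carcinogenicity and related test outcomes (mutagenicity, tumor promotion/inhibition) compiled from published and report sources, historical span 1985-2011, not updated.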

## CCOC(=O)Nc1cccc(OC(=O)Nc2ccccc2)c1
Species: Mouse, Strain/Sex: NMRI/Female (50/Group), Route: Oral, Dose: 0, 30, 150, 750 ppm in diet for 104 wk, Dose: 0, 30, 150, 750 ppm in diet for 104 wk
  carcinogen call: inactive; negative
Species: Mouse, Strain/Sex: NMRI/Male (50/Group), Route: Oral, Dose: 0, 30, 150, 750 ppm in diet for 104 wk, Dose: 0, 30, 150, 750 ppm in diet for 104 wk
  carcinogen call: inactive; negative
Species: Rat, Strain/Sex: Wistar KFM-Han/Female (50/Group), Route: Oral, Dose: 0, 60, 300, 1500 ppm in diet for 2 yr, Dose: 0, 60, 300, 1500 ppm in diet for 2 yr
  carcinogen call: inactive; negative
Species: Rat, Strain/Sex: Wistar KFM-Han/Male (50/Group), Route: Oral, Dose: 0, 60, 300, 1500 ppm in diet for 2 yr, Dose: 0, 60, 300, 1500 ppm in diet for 2 yr
  carcinogen call: inactive; negative

## c1ccc2c(c1)-c1cccc3cccc-2c13
Species: MOUSE, Strain/Sex: B6C3F1/MALE, Route: INTRAPERITONEAL, Dose: 0, 400 NMOL IN 35 µL DMSO ON DAYS 1 (1/7 TOTAL DOSE), 8 (2/7 TOTAL DOSE), AND 15 (4/7 TOTAL DOSE) AFTER BIRTH (STUDY DUR
  carcinogen call: inactive; negative
Species: MOUSE, Strain/Sex: CD-1/FEMALE, Route: INTRAPERITONEAL, Dose: 0, 3.46, 17.3 UMOL (TOTAL DOSE) IN DMSO ADMINISTERED ON DAYS 1, 8, AND 15 OF LIFE (STUDY DURATION: 52 WK), Dose: 0, 3.46, 17.3 UMOL (TOTAL DOSE) IN DMSO ADMINISTERED ON DAYS 1, 8, AND 15 OF LIFE (STUDY DURATION: 52 WK), Tumor Site: Type of Lesion: LUNG: TUMOR
  carcinogen call: active; positive
Species: MOUSE, Strain/Sex: CD-1/MALE, FEMALE, Route: INTRAPERITONEAL, Dose: 0, 0.7, 1.75, 3.5 (TOTAL DOSE) ADMINISTERED TO NEWBORN MICE ON DAYS 1, 8, AND 15 OF AGE IN 1/7, 2/7, AND 4/7 DOSES, RESP, Dose: 0, 0.7, 1.75, 3.5 (TOTAL DOSE) ADMINISTERED TO NEWBORN MICE ON DAYS 1, 8, AND 15 OF AGE IN 1/7, 2/7, AND 4/7 DOSES, RESP, Tumor Site: Type of Lesion: LUNG: ADENOMA OR ADENOCARCINOMA
  carcinogen call: active; positive
Species: MOUSE, Strain/Sex: CD-1/MALE, Route: INTRAPERITONEAL, Dose: 0, 3.46, 17.3 UMOL (TOTAL DOSE) IN DMSO ADMINISTERED ON DAYS 1, 8, AND 15 OF LIFE (STUDY DURATION: 52 WK), Dose: 0, 3.46, 17.3 UMOL (TOTAL DOSE) IN DMSO ADMINISTERED ON DAYS 1, 8, AND 15 OF LIFE (STUDY DURATION: 52 WK), Tumor Site: Type of Lesion: LUNG: TUMOR, LIVER: TUMOR
  carcinogen call: active; positive
Species: MOUSE, Strain/Sex: ICR/FEMALE, Route: INTRAPERITONEAL, Dose: 0, 257.6 UG TOTAL DOSE (36.8 UG/5 µL, 73.6 UG/10 µL, 147.2 UG/20 µL DMSO ON DAYS 1, 8 AND 15) ADMINISTERED TO NEWBORN AN, Tumor Site: Type of Lesion: LUNG: ADENOMA
  carcinogen call: active; positive
Species: MOUSE, Strain/Sex: ICR/MALE, Route: INTRAPERITONEAL, Dose: 0, 257.6 UG TOTAL DOSE (36.8 UG/5 µL, 73.6 UG/10 µL, 147.2 UG/20 µL DMSO ON DAYS 1, 8 AND 15) ADMINISTERED TO NEWBORN AN, Tumor Site: Type of Lesion: LUNG: ADENOMA
  carcinogen call: active; positive
Species: MOUSE, Strain/Sex: SWISS/FEMALE, Route: INTRAPERITONEAL, Dose: 0, 100, 500 UG IN DMSO ON DAY 1 OF STUDY FOLLOWED BY 0, 200, 1000 UG ON DAY 8 THEN 0, 400, 2000 UG ON DAY 15 ADMINISTERE, Dose: 0, 100, 500 UG IN DMSO ON DAY 1 OF STUDY FOLLOWED BY 0, 200, 1000 UG ON DAY 8 THEN 0, 400, 2000 UG ON DAY 15 ADMINISTERE, Tumor Site: Type of Lesion: LUNG: ADENOMA OR CARCINOMA
  carcinogen call: active; positive
Species: MOUSE, Strain/Sex: SWISS/MALE, Route: INTRAPERITONEAL, Dose: 0, 100, 500 UG IN DMSO ON DAY 1 OF STUDY FOLLOWED BY 0, 200, 1000 UG ON DAY 8 THEN 0, 400, 2000 UG ON DAY 15 ADMINISTERE, Dose: 0, 100, 500 UG IN DMSO ON DAY 1 OF STUDY FOLLOWED BY 0, 200, 1000 UG ON DAY 8 THEN 0, 400, 2000 UG ON DAY 15 ADMINISTERE, Tumor Site: Type of Lesion: LUNG: ADENOMA OR CARCINOMA
  carcinogen call: active; positive

## [Cd]
Species: HUMAN, Route: INHALATION, ORAL, DERMAL, Tumor Site: Type of Lesion: PROSTATE GLAND
  carcinogen call: active; positive
Species: RAT, Strain/Sex: F344/MALE,FEMALE, Route: INTRAMUSCULAR, Dose: 5 MG GIVEN IN 2 INJECTIONS AT MONTHLY INTERVALS (STUDY DURATION: 12 MO), Tumor Site: Type of Lesion: INJECTION SITE: FIBROSARCOMA
  carcinogen call: active; positive
Species: RAT, Strain/Sex: LONG-EVANS/FEMALE, Route: INTRAMUSCULAR, Dose: 14, 28 MG, Tumor Site: Type of Lesion: INJECTION SITE: RHABDOMYOSARCOMA, FIBROSARCOMA
  carcinogen call: active; positive

## Nc1ccc(N=Nc2ccccc2)c(N)n1
Species: MOUSE, Strain/Sex: B6C3F1/FEMALE, Route: ORAL, Dose: 0, 600, 1200 PPM IN DIET, Dose: 0, 600, 1200 PPM IN DIET, Tumor Site: Type of Lesion: LIVER: HEPATOCELLULAR ADENOMA OR HEPATOCELLULAR CARCINOMA
  carcinogen call: active; positive
Species: MOUSE, Strain/Sex: B6C3F1/MALE, Route: ORAL, Dose: 0, 600, 1200 PPM IN DIET, Dose: 0, 600, 1200 PPM IN DIET
  carcinogen call: active; positive
Species: RAT, Strain/Sex: F344/FEMALE, Route: ORAL, Dose: 0, 3700, 7500 PPM IN DIET, Dose: 0, 3700, 7500 PPM IN DIET, Tumor Site: Type of Lesion: COLON: ADENOCARCINOMA (NOS)
  carcinogen call: active; positive
Species: RAT, Strain/Sex: F344/MALE, Route: ORAL, Dose: 0, 3700, 7500 PPM IN DIET, Dose: 0, 3700, 7500 PPM IN DIET, Tumor Site: Type of Lesion: INTESTINES (COLON OR RECTUM): ADENOCARCINOMA (NOS), ADENOCARCINOMA (NOS) OR ADENOMA (NOS)
  carcinogen call: active; positive

## CC1=C(C)C(=O)C(C(CCCCCC(=O)O)c2ccccc2)=C(C)C1=O (configuration not stated)
Species: RAT, Strain/Sex: F344/FEMALE, Route: ORAL, Dose: 0, 3, 10, 30, 100 MG/KG/D IN THE DIET FOR 52 WK (STUDY DURATION: 52 WK), Dose: 0, 3, 10, 30, 100 MG/KG/D IN THE DIET FOR 52 WK (STUDY DURATION: 52 WK)
  carcinogen call: inactive; negative
Species: RAT, Strain/Sex: F344/MALE, Route: ORAL, Dose: 0, 3, 10, 30, 100 MG/KG/D IN THE DIET FOR 52 WK (STUDY DURATION: 52 WK), Dose: 0, 3, 10, 30, 100 MG/KG/D IN THE DIET FOR 52 WK (STUDY DURATION: 52 WK)
  carcinogen call: inactive; negative

## C=C/C=N/O
Species: HAMSTER, Strain/Sex: SYRIAN/MALE, Route: GAVAGE, Dose: 0, 2 MG/WK FOR 53 WK (STUDY DURATION: 92 WK)
  carcinogen call: inactive; negative
Species: RAT, Strain/Sex: F344/FEMALE, Route: ORAL, Dose: 0, 320 MG/L IN DRINKING WATER 5 D/WK FOR 100 WK (STUDY DURATION: 130 WK)
  carcinogen call: inactive; negative
Species: RAT, Strain/Sex: F344/FEMALE, Route: ORAL, Dose: 0, 800 MG/L IN DRINKING WATER 5 D/WK FOR 30 WK (STUDY DURATION: 130 WK)
  carcinogen call: inactive; negative
Species: RAT, Strain/Sex: F344/MALE, Route: ORAL, Dose: 0, 320 MG/L IN DRINKING WATER 5 D/WK FOR 100 WK (STUDY DURATION: 130 WK)
  carcinogen call: inactive; negative
Species: RAT, Strain/Sex: F344/MALE, Route: ORAL, Dose: 0, 800 MG/L IN DRINKING WATER 5 D/WK FOR 30 WK (STUDY DURATION: 130 WK)
  carcinogen call: inactive; negative

## CC1CN(N=O)CCO1 (configuration not stated)
Species: HAMSTER, Strain/Sex: SYRIAN/MALE, Route: INTRAGASTRIC, Dose: 0, 27 MG/ML IN 0.2 ML STERILIZED WATER 1/WK FOR 30 WK (TOTAL DOSE 162 MG) (STUDY DURATION: LIFESPAN), Tumor Site: Type of Lesion: LIVER: HEMANGIOSARCOMA, NASAL CAVITY: CARCINOMA, LUNG: CARCINOMA, ADENOMA, FORESTOMACH: PAPILLOMA, TRACHEA: ADENOMA, Tumor Site: Type of Lesion: LIVER: HEMANGIOSARCOMA, NASAL CAVITY: CARCINOMA, LUNG: CARCINOMA, ADENOMA, FORESTOMACH: PAPILLOMA, TRACHEA: ADENOMA
  carcinogen call: active; positive

## Clc1cccc(-c2cccc(Cl)c2)c1
Species: RAT, Strain/Sex: WISTAR/MALE, Route: ORAL, Dose: 0, 100 PPM IN DIET FOR DURATION OF STUDY (STUDY DURATION: 832 D)
  carcinogen call: inactive; negative

## N[C@@H](Cc1c[nH]c2ccccc12)C(=O)O
Species: MOUSE, Strain/Sex: B6C3F1/FEMALE, Route: ORAL, Dose: 0, 25000, 50000 PPM IN DIET, Dose: 0, 25000, 50000 PPM IN DIET
  carcinogen call: inactive; negative
Species: MOUSE, Strain/Sex: B6C3F1/MALE, Route: ORAL, Dose: 0, 25000, 50000 PPM IN DIET, Dose: 0, 25000, 50000 PPM IN DIET
  carcinogen call: inactive; negative
Species: RAT, Strain/Sex: F344/FEMALE, Route: ORAL, Dose: 0, 25000, 50000 PPM IN DIET, Dose: 0, 25000, 50000 PPM IN DIET
  carcinogen call: inactive; negative
Species: RAT, Strain/Sex: F344/MALE, Route: ORAL, Dose: 0, 25000, 50000 PPM IN DIET, Dose: 0, 25000, 50000 PPM IN DIET
  carcinogen call: inactive; negative
